From paper PMC9309159, “Identification of heptapeptides targeting a lethal bacterial strain in septic mice through an integrative approach” (Signal Transduction and Targeted Therapy, 2022)

Tests used:
CLP mice = assay: Survival of CLP mice; assay type: in vivo, C57BL/6 mice; settings: peptide 0.2 nmol/g i.v. 1 h after CLP; observed up to 168 h; Kaplan-Meier; n = 15
Excerpt: (§1) Wild-type C57 mice were intraperitoneally injected with MSI001 bacteria (6 × 10^6 CFU/g body weight) to reproduce a sepsis model. […] Normal saline (NS) was used as control. […] One hour after CLP modeling, the mice were intravenously injected with LL37 or VTK-LL37 peptide at a dosage of 0.2 nmol/g body weight. Equal volume of normal saline (NS) was used as control. […] The mice were intraperitoneally injected with MSI001 bacteria. One hour later, the mice were subjected to tail vein injection (TVI) with VTK-LL37 (VTK-LL37 group), LL37 (LL37 group) or an equivalent volume of NS (sepsis group). Wild-type mice without modeling were used as controls (control group). The blood bacteria were quantitated as colony forming units (CFU) 12 h after injection of bacteria. n = 8. *P < 0.05, compared to control; ^#P < 0.05, compared to sepsis group^; ΔP < 0.05, compared to LL37 group. Results are expressed as the median with range. d Suppression of VTK-LL37 on the production of HMGB1 in the blood of septic mice. […] Twelve hours after bacterial injection, HMGB1 in the serum was quantitated by ELISA. n = 8. *P < 0.05, compared to control; ^#P < 0.05, compared to sepsis group; ^ΔP < 0.05, compared to LL37 group^. Results are expressed as the mean ± SD. e, f Protective effect of VTK-LL37 against organ damage in mice subjected to bacterial injection. […]

E. coli MSI001 = assay: Biofilm detection (crystal violet, A570); assay type: cell-based, Escherichia coli; settings: peptide 0-4 μmol/L, 37 °C, 3 days, A570, n = 5
Procedure: Fig. 6 Antimicrobial activity of the C7C-LL37 fusion peptides in vitro. a Primary structures and physical properties of the C7C and LL37 fusion peptides, including LL37, VTK-LL37, LL37-VTK, KYY-LL37 and LL37-KYY, ISS-LL37, INS-LL37. Net charge, PI and GRAVY values were acquired as described above. b Inhibitory effect of C7C-LL37 fusion peptides on bacterial growth. A C7C-LL37 fusion peptide or LL37 alone was added to the cultured bacterial strain MSI001 (1 × 10^3 CFU) at final concentrations of 0.25 μmol/L, 0.5 μmol/L and 1 μmol/L. Sterile DPBS was used as control. After incubation with the C7C-LL37 or LL37 peptides at 37 °C for different times (1-8 h), bacterial colonies were counted. n = 3. *P < 0.05, VTK-LL37 group compared to LL37 group; ^#P < 0.05, LL37-VTK group compared to LL37 group. c, d Inhibitory effect of VTK-LL37 on biofilm formation. […] The biofilm was stained with 1% crystal violet, and the precipitates were dissolved in 95% ethanol, followed by detection of absorbance at 570 nm (A570) (c). […]
When the OD600 of the bacterial suspension reached 1.0, the bacteria were transferred to a 96-well plate, and the VTK-LL37 or LL37 peptide was added at final concentrations of 0.5 μmol/L, 1 μmol/L, 2 μmol/L, or 4 μmol/L, followed by incubation at 37 °C. […] Bacterial biofilms were observed by microscopy and quantitated by spectrometry. […]

[1] = system: liver, kidney, heart and lung; assay: Histopathological evaluation of organ injury in septic mice; assay type: in vivo, C57BL/6 mice; settings: peptide i.v. 1 h after sepsis modeling; tissues at 12 h; HE staining, injury scores; n = 6
Excerpt: as §1

With “CVTKLGSLCVPGVGLLGDFFRKSKEKIGKEFKRIVQRIKDFLRNLVPRTES [VTK-LL37]” the “survival of CLP mice” value (CLP mice) was “significantly increased the survival of sepsis mice induced by CLP modeling”, the “inhibition of biofilm formation” value (E. coli MSI001) was “inhibited biofilm formation of E. coli MSI001, and VTK-LL37 had a stronger inhibition of biofilm formation at a low dose than LL37 alone” and the sepsis-induced organ injury [1] was “alleviated sepsis-induced injury to multiple organs, including the liver, lung, kidney and heart”.
